Experimental data: patent US8133849B2, “Herbicidal compounds” (Syngenta Limited, priority 2007, dated 2012)

Key:
Experiment in all cases: Example B2 herbicidal action, post-emergence, pots in glasshouse, damage score 0-10
Format in all cases: in vivo
Conditions in all cases: application post-emergence, rate 1000 g/ha, evaluated after 13 days
Echinochloa crus-galli = system: Echinochloa crus-galli
Procedure, shortened: (§1)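 Evaluation took place 13 days post-spray. Treatment used an acetone/water (50:50), 0.5% Tween 20 formulation applied to 8-day-old potted plants, held at 24/16 °C with 14 h light, 65% humidity and twice-daily watering.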

Amaranthus retroflexus = system: Amaranthus retroflexus
Procedure, shortened: as §1

Ipomea hederaceae = system: Ipomea hederaceae
Procedure, shortened: as §1

Solanum nigrum = system: Solanum nigrum
Procedure, shortened: as §1

Setaria faberi = system: Setaria faberi
Procedure, shortened: as §1

| Compound | ECHCG damage score (10=total damage to plant; 0=no damage to plant) (Echinochloa crus-galli) | AMARE damage score (10=total damage to plant; 0=no damage to plant) (Amaranthus retroflexus) | IPOHE damage score (10=total damage to plant; 0=no damage to plant) (Ipomea hederaceae) | SOLNI damage score (10=total damage to plant; 0=no damage to plant) (Solanum nigrum) | SETFA damage score (10=total damage to plant; 0=no damage to plant) (Setaria faberi) |
| --- | --- | --- | --- | --- | --- |
| CC(C)(C)C(=O)OC1=C(c2ccc(-c3ccc(Cl)cc3F)cc2Cl)S(=O)(=O)N(CC(F)F)c2nccnc21 [Compound C142] | 1 | 4 | 3 | 6 | 0 |
| CC(C)(C)C(=O)OC1=C(c2c(Cl)ccc(Cl)c2C(F)(F)F)S(=O)(=O)N(CC(F)F)c2nccnc21 [Compound C52] | 7 | 9 | 10 | 8 | 8 |
| C=CCN1c2nccnc2C(OC(=O)C(C)(C)C)=C(c2cc(Cl)ccc2C(F)(F)F)S1(=O)=O [Compound C118] | 5 | 6 | 4 | 8 | 4 |
| CC#CCN1c2nccnc2C(OC(=O)C(C)(C)C)=C(c2c(Cl)ccc(Cl)c2C(F)(F)F)S1(=O)=O [Compound C96] | 1 | 0 | 4 | 7 | 0 |
| CCN1c2nccnc2C(OC(=O)C(C)(C)C)=C(c2c(F)cccc2C(F)(F)F)S1(=O)=O [Compound C43] | 5 | 5 | 5 | 6 | 3 |
| CC(C)C(=O)OC1=C(c2cc(Cl)cc(C(F)(F)F)c2)S(=O)(=O)N(CC(F)F)c2nccnc21 [Compound C149] | 0 | 10 | 0 | 8 | 0 |
| CC(C)C(=O)OC1=C(c2cccc(C(F)(F)F)c2Cl)S(=O)(=O)N(CC(F)F)c2nccnc21 [Compound C73] | 2 | 7 | 7 | 7 | 2 |
| CCN1c2nccnc2C(O)=C(c2ccc(Cl)c(Cl)c2)S1(=O)=O [Compound D8] | 0 | 9 | 0 | 2 | 0 |
| CCOC(=O)OC1=C(c2cc(Cl)ccc2C(F)(F)F)S(=O)(=O)N(CC(F)F)c2nccnc21 [Compound C120] | 8 | 9 | 10 | 9 | 9 |
| CCN1c2nccnc2C(OC(=O)C(C)C)=C(c2ccc(Cl)c(Cl)c2)S1(=O)=O [Compound C26] | 0 | 9 | 0 | 0 | 0 |
| CCN1c2nccnc2C(O)=C(c2cc(C(F)(F)F)ccc2Br)S1(=O)=O [Compound D35] | 1 | 8 | 10 | 9 | 4 |
| O=S1(=O)C(c2cccc(Cl)c2Cl)=C(O)c2nccnc2N1CC(F)F [Compound D50] | 1 | 5 | 8 | 10 | 2 |
| CCN1c2nccnc2C(OC(=O)C(C)(C)C)=C(c2c(Cl)cccc2C(F)(F)F)S1(=O)=O [Compound C17] | 5 | 8 | 7 | 9 | 4 |
| CC(C)C(=O)OC1=C(c2ccccc2[N+](=O)[O-])S(=O)(=O)N(CC(F)F)c2nccnc21 [Compound C65] | 0 | 2 | 1 | 2 | 2 |
| C#CCN1c2nccnc2C(O)=C(c2c(Cl)ccc(Cl)c2C(F)(F)F)S1(=O)=O [Compound D45] | 6 | 8 | 8 | 9 | 6 |
| CCOC(=O)OC1=C(c2cc(Cl)cc(C(F)(F)F)c2)S(=O)(=O)N(CC(F)F)c2nccnc21 [Compound C124] | 0 | 10 | 2 | 2 | 0 |
| CCSC(=O)OC1=C(c2cc(F)c(Cl)cc2Cl)S(=O)(=O)N(CC(F)F)c2nccnc21 [Compound C88] | 6 | 9 | 9 | 9 | 4 |
| CC(C)C(=O)OC1=C(c2cc(C(F)(F)F)ccc2Cl)S(=O)(=O)N(CC(Cl)Cl)c2nccnc21 [Compound C115] | 1 | 8 | 6 | 9 | 5 |
| CC(C)C(=O)OC1=C(c2ccccc2C(F)(F)F)S(=O)(=O)N(CC(F)F)c2nccnc21 [Compound C61] | 9 | 10 | 10 | 10 | 10 |
| CC(C)C(=O)OC1=C(c2ccc(Cl)cc2Cl)S(=O)(=O)N(CC(F)(F)C(F)F)c2nccnc21 [Compound C122] | 2 | 5 | 6 | 9 | 3 |
| CC(C)C(=O)OC1=C(c2c(F)cccc2C(F)(F)F)S(=O)(=O)N(CC(F)F)c2nccnc21 [Compound C77] | 9 | 10 | 10 | 10 | 9 |
| CC(C)(C)C(=O)OC1=C(c2c(F)ccc(Br)c2Cl)S(=O)(=O)N(CC(F)F)c2nccnc21 [Compound C35] | 7 | 10 | 10 | 10 | 7 |
| CC(C)C(=O)OC1=C(c2c(F)ccc(Cl)c2Cl)S(=O)(=O)N(CC(F)F)c2nccnc21 [Compound C36] | 7 | 9 | 10 | 9 | 3 |
| CCSC(=O)OC1=C(c2cc(Cl)ccc2C(F)(F)F)S(=O)(=O)N(CC(F)F)c2nccnc21 [Compound C112] | 6 | 10 | 9 | 10 | 6 |
| CCN1c2nccnc2C(OC(=O)C(C)(C)C)=C(c2cc(C(F)(F)F)ccc2C(F)(F)F)S1(=O)=O [Compound C46] | 4 | 4 | 5 | 6 | 0 |
| CC(C)C(=O)OC1=C(c2c(Cl)ccc(Cl)c2Cl)S(=O)(=O)N(CC(F)F)c2nccnc21 [Compound C38] | 9 | 9 | 10 | 10 | 9 |
